# Measured values as given in US6967196B1, “Sulfonamide compounds and uses thereof” (Bristol-Myers Squibb Company, priority 1999, dated 2005).
# Structures can show the parent of a compound that is named as a salt. Where two headings read alike, the source gives them in different places.
# Tested on: amyloid β production in transfected H4 (human neuroglioma) cells stably expressing APP constructs
# Assay: In vitro cell-based assay of inhibitors of amyloid β production (ELISA)
# Conditions: amyloid β in medium by ELISA
# Method in brief: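 Test agents are screened at 10-100 μM for about 16 hours on cells stably expressing wild-type or variant APP. Secreted Aβ is measured by ELISA and compared with control-treated cells.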
# [1] = transfected H4 cells stably expressing APP, approx. 16 h incubation, read-out: ACTIVITY (IC50, inhibition of amyloid β production)
# [2] = transfected H4 cells stably expressing APP, approximately 16 hours incubation, read-out: ACTIVITY (IC50, inhibition of amyloid β production)
# [3] = transfected H4 cells stably expressing APP, approximately 16 hours incubation, Table B, read-out: ACTIVITY (IC50, inhibition of amyloid β production)
# [4] = Homo sapiens, 16 h, transfected H4 cells stably expressing APP, approximately 16 hours incubation, Table B, read-out: ACTIVITY (IC50, inhibition of amyloid β production)
# [5] = Homo sapiens, 16 h, transfected H4 cells stably expressing APP, approx. 16 h incubation, read-out: ACTIVITY (IC50, inhibition of amyloid β production)
# [6] = Homo sapiens, 16 h, transfected H4 cells stably expressing APP, approximately 16 hours incubation, read-out: ACTIVITY (IC50, inhibition of amyloid β production)
# [7] = transfected H4 cells stably expressing APP constructs, approximately 16 hours incubation, read-out: ACTIVITY (IC50, inhibition of amyloid β production)
molecule,measurement,setting,value
"N-{3-[2-(1-{[(4-chlorophenyl)sulfonyl]-2,5-difluoroanilino}ethyl)phenoxy]propyl}-3,4-dimethoxy-N-methylbenzamide [Example 643]",IC50,[1],100 to 500 nM
"1-{3-[2-({[(4-chlorophenyl)sulfonyl]-2,5-difluoroanilino}methyl)phenoxy]propyl}-1-methylpiperidinium iodide [Example 1037]",IC50,[2],> 500 nM
"CN(CCCOc1ccccc1CN(c1cc(F)ccc1F)S(=O)(=O)c1ccc(Cl)cc1)C(=O)c1ccc(-c2ccccc2)cc1 [Example 752, N-{3-[2-({[(4-chlorophenyl)sulfonyl]-2,5-difluoroanilino}methyl)phenoxy]propyl}-N-methyl[1,1′-biphenyl]-4-carboxamide]",IC50,[1],100 to 500 nM
"C[C@H](c1ccc(F)cc1CCCC(=O)NC1CCCCC1)N(c1cc(F)ccc1F)S(=O)(=O)c1ccc(Cl)cc1 [Example 496, 4-[2-((1R)-1-{[(4-chlorophenyl)sulfonyl]-2,5-difluoroanilino}ethyl)-5-fluorophenyl]-N-cyclohexylbutanamide]",IC50,[3],100 to 500 nM
"N-{2-[2-(1-{[(4-chlorophenyl)sulfonyl]-2,5-difluoroanilino}ethyl)phenoxy]ethyl}-N-ethylpropanamide [Example 504]",IC50,[3],100 to 500 nM
"C[C@H](c1ccc(F)cc1CCOC(=O)NCc1ccc(F)cc1)N(c1cc(F)ccc1F)S(=O)(=O)c1ccc(Cl)cc1 [Example 419, 2-[2-((1R)-1-{[(4-chlorophenyl)sulfonyl]-2,5-difluoroanilino}ethyl)-5-fluorophenyl]ethyl 4-fluorobenzylcarbamate]",IC50,[4],50 to 100 nM
"CCN(CCOc1ccccc1C(C)N(c1cc(F)ccc1F)S(=O)(=O)c1ccc(Cl)cc1)C(=O)NC(C)(C)C (centres unmarked) [Example 709, N-[1-(2-{2-[[(tert-butylamino)carbonyl](ethyl)amino]ethoxy}phenyl)ethyl]-4-chloro-N-(2,5 difluorophenyl)benzenesulfonamide]",IC50,[5],100 to 500 nM
"C[C@H](c1ccccc1OCCCn1ccnc1)N(c1cccc(F)c1)S(=O)(=O)c1ccc(Cl)cc1 [Example 895, 4-chloro-N-(3-fluorophenyl)-N-((1R)-1-{2-[3-(1H-imidazol-1-yl)propoxy]phenyl}ethyl)benzenesulfonamide hydrochloride]",IC50,[6],> 500 nM
"CCSCCC[C@@H](C)N(c1cc(F)ccc1F)S(=O)(=O)c1ccc(Cl)cc1 [Example 1177, 4-chloro-N-[2,5-difluorophenyl]-N-[1(R)-methyl-(4-ethylthio)butyl]benzenesulfonamide]",IC50,[7],≤ 25 nM
"C[C@H](O)CCOC(c1ccccc1)(c1ccccc1)c1ccccc1 [Example 25, (S)-4-triphenylmethylyloxy-2-butanol]",IC50,"Table B, transfected H4 cells stably expressing APP, approximately 16 hours incubation, read-out: ACTIVITY (inhibitory concentration IC50, inhibition of amyloid β production)",≤ 25 nM
Cc1cccc(C(=O)NCCCOc2ccccc2C(C)N(c2cc(F)ccc2F)S(=O)(=O)c2ccc(Cl)cc2)c1 (centres unmarked) [Example 687],IC50,[1],100 to 500 nM
"2,2,2-trichloro-N-{3-[2-({[(4-chlorophenyl)sulfonyl]-2,5-difluoroanilino}ethyl)phenoxy]propyl(methyl)carbamate [Example 876]",IC50,[2],100 to 500 nM
"CC(c1ccccc1OCCN(C)S(=O)(=O)CC(F)(F)F)N(c1cc(F)ccc1F)S(=O)(=O)c1ccc(Cl)cc1 (centres unmarked) [Example 701, 4-chloro-N-(2,5-difluorophenyl)-N-{1-[2-(2-{methyl[(2,2,2-trifluorophenyl)sulfonyl]amino}ethoxy)phenyl]ethyl}benzenesulfonamide]",IC50,[1],100 to 500 nM
"O=S(=O)(c1ccc(Cl)cc1)N(Cc1ccccc1OCCCSC1CCCCC1)c1cc(F)ccc1F [Example 869, 4-chloro-N-{2-[3-(cyclohexylsulfanyl)propoxy]benzyl}-N-(2,5-difluorophenyl)benzenesulfonamide]",IC50,[6],100 to 500 nM
"N-{3-[2-(1-{[(4-chlorophenyl)sulfonyl]-2,5-difluoroanilino}ethyl)phenoxy]propyl}-2,3,4-trifluoro-N-methylbenzamide [Example 670]",IC50,[1],100 to 500 nM
"O=S(=O)(c1ccc(Cl)cc1)N(Cc1ccc2ccccc2c1OCCCN1CCCCC1)c1cc(F)ccc1F [Example 272, 4-Chloro-N-(2,5-difluorophenyl)-N-({1-[3-(1-piperidinyl)propoxy]-2-naphthylmethyl)benzenesulfonamide Hydrochloride]",IC50,[3],25 to 50 nM
"C[C@H](c1ccccc1OCCCn1ccnc1)N(c1cc(F)ccc1F)S(=O)(=O)c1ccc(Cl)cc1 [Example 908, 4-chloro-N-(2,5-difluorophenyl)-N-((1R)-1-{2-[3-(1H-imidazol-1-yl)propoxy]phenyl}ethyl)benzenesulfonamide hydrochloride]",IC50,[6],> 500 nM
"N-{3-[2-(1-{[(4-chlorophenyl)sulfonyl]-2,5-difluoroanilino}ethyl)phenoxy]propyl}-N-methyl-1-naphthamide [Example 966]",IC50,[2],> 500 nM
CCCNC(=O)OC[C@@H](C)N(c1cc(Cl)ccc1CO)S(=O)(=O)c1ccc(Cl)cc1 [Example 1281],IC50,"Homo sapiens, 16 h, transfected H4 cells expressing APP, approximately 16 hours incubation, read-out: ACTIVITY (IC50, inhibition of amyloid β production)",≤ 25 nM
"N-{3-[2-(1-{[(4-chlorophenyl)sulfonyl]-2,5-difluoroanilino}ethyl)phenoxy]propyl}-2,3,4,5,6-pentafluorobenzamide [Example 742]",IC50,[1],100 to 500 nM
"C[C@H](CCN1CCCC(S(C)(=O)=O)C1)N(c1cc(Cl)ccc1Cl)S(=O)(=O)c1ccc(Cl)cc1 (stereo partly drawn) [Example 1132, 4-chloro-N-(2,5-dichlorophenyl)-N-[3-[(3-methylsulfonyl)-1-piperidinyl]-1(R)-methylpropyl]benzenesulfonamide]",IC50,[7],50 to 100 nM
"N-{3-[2-(1-{[(4-chlorophenyl)sulfonyl]-2,5-difluoroanilino}ethyl)phenoxy]propyl}-2,3,4,5-tetrafluoro-N-methylbenzamide [Example 778]",IC50,[1],100 to 500 nM
"O=S(=O)(c1ccc(Cl)cc1)N(Cc1ccccc1C#CCCN1CCCCC1)c1ccccc1 [Example 973, 4-chloro-N-phenyl-N-{2-[4-(1-piperidinyl)-1-butynyl]benzyl}benzenesulfonamide]",IC50,[6],> 500 nM
"N-{3-[2-(1-{[(4-chlorophenyl)sulfonyl]-2,5-difluoroanilino}ethyl)phenoxy]propyl}-2,4,5-trifluoro-N-methylbenzamide [Example 710]",IC50,[1],100 to 500 nM
CC(C)S(=O)(=O)CCC[C@@H](C)N(c1cc(Cl)ccc1CO)S(=O)(=O)c1ccc(Cl)cc1 [Example 1220],IC50,[7],≤ 25 nM
"N-{3-[2-(1-{[(4-chlorophenyl)sulfonyl]-2,5-difluoroanilino}ethyl)phenoxy]propyl}-3-methoxybenzamide [Example 690]",IC50,[1],100 to 500 nM
"N-{3-[2-(1-{[(4-chlorophenyl)sulfonyl]-2,5-difluoroanilino}ethyl)phenoxy]propyl}-4-(trifluoromethoxy)benzamide [Example 920]",IC50,[2],> 500 nM
"C[C@H](c1ccccc1OCCCBr)N(c1cc(F)ccc1F)S(=O)(=O)c1ccc(Cl)cc1 [Example 1045, N-{(1R)-1-[2-(3-bromopropoxy)phenyl]ethyl}-4-chloro-N-(2,5-difluorophenyl)benzenesulfonamide]",IC50,[6],> 500 nM
"N-{3-[2-({[(4-chlorophenyl)sulfonyl]-2,5-difluoroanilino}methyl)phenoxy]propyl}-4-fluoro-N-methylbenzamide [Example 747]",IC50,[1],100 to 500 nM
"CCS(=O)(=O)CCC[C@@H](C)N(c1cc(F)ccc1F)S(=O)(=O)c1ccc(Cl)cc1 [Example 1166, 4-chloro-N-[2,5-difluorophenyl]-N-[1(R)-methyl-(4-ethylsulfonyl)butyl]benzenesulfonamide]",IC50,[7],≤ 25 nM
"N-{3-[2-(1-{[(4-chlorophenyl)sulfonyl]-2,5-difluoroanilino}ethyl)phenoxy]propyl}-N-methyl-4-(trifluoromethoxy)benzamide [Example 770]",IC50,[1],100 to 500 nM
"O=C(c1cccc2ccccc12)N1CCCCC1CCOc1ccccc1CN(c1cc(F)ccc1F)S(=O)(=O)c1ccc(Cl)cc1 (centres unmarked) [Example 792, 4-chloro-N-(2,5-difluorophenyl)-N-(2-{2-[1-(1-naphthoyl)-2-piperidinyl]ethoxy}benzyl)benzenesulfonamide]",IC50,[5],100 to 500 nM
"CC(c1ccccc1OCCCNC(=O)c1cccnc1)N(c1cc(F)ccc1F)S(=O)(=O)c1ccc(Cl)cc1 (centres unmarked) [Example 359, N-{3-[2-(1-{[(4-chlorophenyl)sulfonyl]-2,5-difluoroanilino}ethyl)phenoxy]propyl}nicotinamide]",IC50,[3],50 to 100 nM
"CCOc1ccc(C(=O)N2CCCCC2CCOc2ccccc2CN(c2cc(F)ccc2F)S(=O)(=O)c2ccc(Cl)cc2)cc1 (centres unmarked) [Example 648, 4-chloro-N-(2,5-difluorophenyl)-N-{2-[2-[1-(4-ethoxybenzoyl)-2-piperidinyl]ethoxy}benzyl)benzenesulfonamide]",IC50,[5],100 to 500 nM
"CC(c1ccccc1OCCCN(C)C(=O)CCC1CCCC1)N(c1cc(F)ccc1F)S(=O)(=O)c1ccc(Cl)cc1 (centres unmarked) [Example 428, N-{3-[2-(1-{[(4-chlorophenyl)sulfonyl]-2,5-difluoroanilino}ethyl)phenoxy]propyl}-3-cyclopentyl-N-methylpropanamide]",IC50,[4],50 to 100 nM
